Biological target: T1, IRAK4 (Homo sapiens, UniProt Q9NWZ3)
T1 sequence (Q9NWZ3 1-460): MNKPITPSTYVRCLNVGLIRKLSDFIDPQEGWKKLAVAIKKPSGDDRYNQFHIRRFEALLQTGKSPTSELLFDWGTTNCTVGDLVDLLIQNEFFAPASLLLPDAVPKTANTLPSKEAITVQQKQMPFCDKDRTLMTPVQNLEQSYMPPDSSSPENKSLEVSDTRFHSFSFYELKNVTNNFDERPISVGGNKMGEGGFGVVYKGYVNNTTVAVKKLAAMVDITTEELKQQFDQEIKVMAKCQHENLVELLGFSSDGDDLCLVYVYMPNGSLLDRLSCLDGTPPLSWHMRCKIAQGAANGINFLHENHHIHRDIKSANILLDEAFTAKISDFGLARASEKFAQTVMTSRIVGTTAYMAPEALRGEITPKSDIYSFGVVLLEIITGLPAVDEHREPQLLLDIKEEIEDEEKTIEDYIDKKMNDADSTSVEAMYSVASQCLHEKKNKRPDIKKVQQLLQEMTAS
Assay: OCI-LY-10 MSD assay for IRAK4 DC50
Format: cell-based
Set-up: endogenous in cells; host or cells: OCI-LY10
Details: OCI-LY10 cells, 4 hr incubation, concentration required to degrade 50% of protein
Description: A MSD assay was run to determine the concentration of compound required to degrade 50% of protein (DC50).
Day 1 • Compounds were reconstituted to 10 mM in stock solutions. The stock solutions were diluted to 5 mM and 45 μL of each dilution was transferred to a 384 pp-plate. A 3 fold, 8-point serial dilution was performed by transferring 15 μL of compound into 30 μL DMSO using Janus. • 20 nL of each compounds were added into each well of a 96-well plate (Corning3799). • OCI-Ly10 cells were seeded into the 96-well plate at 3.0*10e^5 cells/100 μL/well. • The cell plate was shaken at 720 rpm for 5 min and incubated for 4 hr. • The 100 μL of cells were transferred into the 96-PCR plate and spun down at high speed for 5 mins. • The supernatant was discarded and 100 μL of RIPA lysis buffer with proteinase inhibitors was added per well. The plate was then sealed and shaken at 600 rpm and 4° C. for about 20 min. • The plate was then spun down at high speed (about 3200 g) for 30 min and then frozen in a −80° C. fridge. • A bare MSD plate (L15XA-3) was coated with 2 μg/mL of capture antibody (mouse Anti-IRAK4 antibody [2H9], ab119942) in PBS to 40 μL/well and incubated overnight at 4° C.
Day 2 • The MSD coated plate was washed 3× (150 μL/well) with 1×TBST (CST #9997S). • The MSD plate was then blocked with 150 μL of blocking buffer [3% Blocker A (MSD, R93BA-4) in TBST]/well and shaken for 1 hr at R^† and 600 rpm. • The MSD plate was washed 3× (150 μL/well) with 1×TBST. The sample RIPA lysates were then added to the MSD plate (50 μL/well) and shaken for 1 hr at R^† and 600 rpm. • The MSD plate was washed 3× (150 μL/well) with 1×TBST and the primary detection antibody (Rabbit Anti-IRAK4 antibody [Y279], ab32511) was added to a final concentration of 1 μg/ml with 25 μL/well. The plate was then shaken for 1 hr at RT and 600 rpm. • The MSD plate was washed 3× (150 μL/well) with 1×TBST and the secondary detection antibody, SULFO-TAG anti-species antibody (Anti Rabbit Antibody (R32AB-5) MSD, R32AB-1) was added to a volume of 25 μL/well at a final concentration of 1 jag/ml. The plate was then shaken for 1 hr at RT and 600 rpm. • The MSD plate was then washed 3× (150 μL/well) with 1×TBST. • lx MSD reading buffer was then added (150 μL/well) and the plate was diluted with 4× water. (MSD, R92TC-2) • The MSD instrument was then read.
Data Analysis • The remaining activity was calculated following the formula below:
Calculate • The DC50 was calculated by fitting the Curve using Xlfit (v5.3.1.3), equation 201: Y=Bottom+(Top−Bottom)/(1+10^((Log IC50−X)*HillSlope))
OCI-LY-10 DC50 results. The letter codes for IRAK4 DC50 indicate the concentration of compound required to degrade 50% of protein: A (<0.05 μM), B (0.05-0.1 μM), C (0.1-0.5 μM), D (0.5-1.0 μM), and E (>1.0 μM).

| DC50 [nM] | Compound |
| --- | --- |
| 100 to 500 | O=C1CCC(N2C(=O)c3ccc(NC4CCN(CCOCCNC(=O)c5ccc(-n6cc(NC(=O)c7coc(-c8ccnc(NCC9CC9)c8)n7)c(C(F)F)n6)cc5)CC4)cc3C2=O)C(=O)N1 (stereo not shown) [I-271] |
| 50 to 100 | O=C1CCC(N2C(=O)c3cccc(N4CCN(CCOCCOCCNC(=O)c5ccc(-n6cc(NC(=O)c7coc(-c8ccnc(NCC9CC9)c8)n7)c(C(F)F)n6)cc5)CC4)c3C2=O)C(=O)N1 (stereo not shown) [I-273] |
| 100 to 500 | O=C1CCC(N2C(=O)c3cccc(N4CCN(CCOCCNC(=O)c5ccc(-n6cc(NC(=O)c7coc(-c8ccnc(NCC9CC9)c8)n7)c(C(F)F)n6)cc5)CC4)c3C2=O)C(=O)N1 (stereo not shown) [I-274] |
| < 50 | Cn1c(=O)n(C2CCC(=O)NC2=O)c2cccc(CCCOCCOCCNC(=O)c3ccc(-n4cc(NC(=O)c5coc(-c6ccnc(NCC(F)(F)F)c6)n5)c(C(F)F)n4)cc3)c21 (stereo not shown) [I-280] |
| > 1000 | CC(C)(C)[C@H](NC(=O)COCCOCCOCCNc1cccc2c1C(=O)N(C1CCC(=O)NC1=O)C2=O)C(=O)N1C[C@H](OC(=O)[C@@H]2CCCN2)C[C@H]1C(=O)NCc1ccc(-n2cc(NC(=O)c3coc(-c4ccnc(NCC5CC5)c4)n3)c(C(F)F)n2)cc1 (stereo partly drawn) [I-286, [(3R,5S)-5-[[4-[4-[[2-[2-(cyclopropylmethylamino)-4-pyridyl]oxazole-4-carbonyl]amino]-3-(difluoromethyl)pyrazol-1-yl]phenyl]methylcarbamoyl]-1-[(2S)-2-[[2-[2-[2-[2-[[2-(2,6-dioxo-3-piperidyl)-1,3-dioxo-isoindolin-4-yl]amino]ethoxy]ethoxy]ethoxy]acetyl]amino]-3,3-dimethyl-butanoyl]pyrrolidin-3-yl](2S)-pyrrolidine-2-carboxylate] |
| > 1000 | O=C1CCC(N2C(=O)c3cccc(NCCOCCOCCOCC(=O)N4C[C@H](OC(=O)[C@@H]5CCCN5)C[C@H]4C(=O)NCc4ccc(-n5cc(NC(=O)c6coc(-c7ccnc(NCC8CC8)c7)n6)c(C(F)F)n5)cc4)c3C2=O)C(=O)N1 (stereo partly shown) [I-289] |
| > 1000 | Cn1cc(NC(=O)c2coc(-c3ccnc(NCC(F)(F)F)c3)n2)c(C(=O)NCCOCCOCCOCCNc2cccc3c2C(=O)N(C2CCC(=O)NC2=O)C3=O)n1 (stereo not shown) [I-292] |
| > 1000 | Cc1ncsc1-c1ccc(CNC(=O)[C@@H]2C[C@@H](O)CN2C(=O)[C@@H](NCCOCCOCCOCCNC(=O)C2CCC(n3cc(NC(=O)c4coc(-c5ccnc(NCC(F)(F)F)c5)n4)c(C(N)=O)n3)CC2)C(C)(C)C)cc1 (stereo partly shown) [I-293] |
| > 1000 | Cn1cc(NC(=O)c2coc(-c3ccnc(NCC(F)(F)F)c3)n2)c(C(=O)NCCCOCCCOCCCNc2cccc3c2C(=O)N(C2CCC(=O)NC2=O)C3=O)n1 (stereo not shown) [I-294] |
| > 1000 | Cc1ncsc1-c1ccc(CNC(=O)[C@@H]2C[C@@H](O)CN2C(=O)[C@@H](NCCOCCOCCOCCNC(=O)c2nn(C)cc2NC(=O)c2coc(-c3ccnc(NCC(F)(F)F)c3)n2)C(C)(C)C)cc1 [I-295] |
| > 1000 | COCC(=O)N[C@H](C(=O)N1Cc2cc(OCCOCCOCCOCCOCCNC(=O)c3ccc(-n4cc(NC(=O)c5coc(-c6ccnc(NCC7CC7)c6)n5)c(C(F)F)n4)cc3)ccc2CC1C(=O)N[C@@H]1CCCc2ccccc21)C(C)(C)C (stereo partly shown) [I-296] |
| > 1000 | Cc1ncsc1-c1ccc(CNC(=O)[C@@H]2C[C@@H](O)CN2C(=O)[C@@H](NC(=O)COCCOCCOCCOCCNC(=O)c2nn(C)cc2NC(=O)c2coc(-c3ccnc(NCC(F)(F)F)c3)n2)C(C)(C)C)cc1 [I-299] |
| > 1000 | Cn1cc(NC(=O)c2cocn2)c(C(=O)NCCOCCOCCOCCNc2cccc3c2C(=O)N(C2CCC(=O)NC2=O)C3=O)n1 (stereo not shown) [I-300] |
| > 1000 | Cn1cc(NC(=O)c2coc(-c3ccncc3)n2)c(C(=O)NCCOCCOCCOCCNc2cccc3c2C(=O)N(C2CCC(=O)NC2=O)C3=O)n1 (stereo not shown) [I-301] |
| < 50 | CN(CCOCCCc1cccc2c1C(=O)N(C1CCC(=O)NC1=O)C2=O)Cc1ccc(-n2cc(NC(=O)c3coc(-c4ccnc(NCC5CC5)c4)n3)c(C(N)=O)n2)cc1 (stereo not shown) [I-313] |
| 50 to 100 | O=C1CCC(N2C(=O)c3cccc(NC4CCN(CCOCCOCCNCc5ccc(-n6cc(NC(=O)c7coc(-c8ccnc(NCC9CC9)c8)n7)c(C(F)F)n6)cc5)CC4)c3C2=O)C(=O)N1 (stereo not shown) [I-334] |

| DC50 [nM] | Compound |
| --- | --- |
| 500 to 1000 | O=C1CCC(N2Cc3c(NC4CCN(CCOCCOCCNCc5ccc(-n6cc(NC(=O)c7coc(-c8ccnc(NCC9CC9)c8)n7)c(C(F)F)n6)cc5)CC4)cccc3C2=O)C(=O)N1 (stereo not shown) [I-384] |
| 100 to 500 | O=C1CCC(N2C(=O)c3cccc(N4CCN(CCOCCNCc5ccc(-n6cc(NC(=O)c7coc(-c8ccnc(NCC9CC9)c8)n7)c(C(F)F)n6)cc5)CC4)c3C2=O)C(=O)N1 (stereo not shown) [I-390] |
| 100 to 500 | O=C1CCC(N2C(=O)c3cccc(N4CCN(CCOCCOCCOCCNCc5ccc(-n6cc(NC(=O)c7coc(-c8ccnc(NCC9CC9)c8)n7)c(C(F)F)n6)cc5)CC4)c3C2=O)C(=O)N1 (stereo not shown) [I-391] |
| 50 to 100 | NC(=O)c1nn(-c2ccc(CNCCOCCOCCN3CCN(c4cccc5c4C(=O)N(C4CCC(=O)NC4=O)C5=O)CC3)cc2)cc1NC(=O)c1coc(-c2ccnc(NCC3CC3)c2)n1 (stereo not shown) [I-396] |
| 100 to 500 | NC(=O)c1nn(-c2ccc(CNCCCOCCCOCCCNc3cccc4c3C(=O)N(C3CCC(=O)NC3=O)C4=O)cc2)cc1NC(=O)c1coc(-c2ccnc(NCC3CC3)c2)n1 (stereo not shown) [I-398] |
| < 50 | NC(=O)c1nn(-c2ccc(CNCCCOCCCNc3cccc4c3C(=O)N(C3CCC(=O)NC3=O)C4=O)cc2)cc1NC(=O)c1coc(-c2ccnc(NCC3CC3)c2)n1 (stereo not shown) [I-399] |
| < 50 | CNC(=O)c1nn(-c2ccc(CNCCOCCOCCNc3cccc4c3C(=O)N(C3CCC(=O)NC3=O)C4=O)cc2)cc1NC(=O)c1coc(-c2ccnc(NCC(F)(F)F)c2)n1 (stereo not shown) [I-400] |
| < 50 | CC(NCCOCCOCCCc1cccc2c1n(C)c(=O)n2C1CCC(=O)NC1=O)c1ccc(-n2cc(NC(=O)c3coc(-c4ccnc(NCC5CC5)c4)n3)c(C(F)F)n2)cc1 (stereo not shown) [I-401] |
| > 1000 | O=C1CCC(N2C(=O)c3cccc(NCCOCCOCCNCc4ccc(-n5cc(NC(=O)c6coc(-c7ccnc(NCC(F)(F)F)c7)n6)c(CCCO)n5)cc4)c3C2=O)C(=O)N1 (stereo not shown) [I-402] |
| 50 to 100 | Cn1c(=O)n(C2CCC(=O)NC2=O)c2cccc(CCCOCCOCCNC3(c4ccc(-n5cc(NC(=O)c6coc(-c7ccnc(NCC8CC8)c7)n6)c(C(F)F)n5)cc4)CC3)c21 (stereo not shown) [I-403] |
| < 50 | Cn1c(=O)n(C2CCC(=O)NC2=O)c2cccc(CCCOCCCNCc3ccc(-n4cc(NC(=O)c5coc(-c6ccnc(NCC7CC7)c6)n5)c(C(F)F)n4)cc3)c21 (stereo not shown) [I-404] |
| < 50 | Cn1c(=O)n(C2CCC(=O)NC2=O)c2ccc(CCCOCCCNCc3ccc(-n4cc(NC(=O)c5coc(-c6ccnc(NCC7CC7)c6)n5)c(C(F)F)n4)cc3)cc21 (stereo not shown) [I-405] |
| < 50 | Cn1c(=O)n(C2CCC(=O)NC2=O)c2cccc(CCCOCCCOCCCNCc3ccc(-n4cc(NC(=O)c5coc(-c6ccnc(NCC7CC7)c6)n5)c(C(F)F)n4)cc3)c21 (stereo not shown) [I-406] |
| < 50 | Cn1c(=O)n(C2CCC(=O)NC2=O)c2ccc(CCCOCCCOCCCNCc3ccc(-n4cc(NC(=O)c5coc(-c6ccnc(NCC7CC7)c6)n5)c(C(F)F)n4)cc3)cc21 (stereo not shown) [I-407] |
| > 1000 | Cn1cc(NC(=O)c2coc(-c3ccnc(NCC(F)(F)F)c3)n2)c(CNCCOCCOCCOCCNc2cccc3c2C(=O)N(C2CCC(=O)NC2=O)C3=O)n1 (stereo not shown) [I-408] |

From patent US10874743B2, “IRAK degraders and uses thereof” (Kymera Therapeutics, Inc., priority 2017, dated 2020)
